Source: ChEMBL document CHEMBL1201862, “PubChem BioAssay data set” (2004)
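Results reflect a 48-hour exposure of cells in 96-well plates to compound at five concentrations. GI50 = concentration required for 50% inhibition of growth.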 Activity calls are given as the source filed them. No stated cut-off is given here; in the data, active = GI50 up to about 1.1 µM and inactive = higher.

Key:
Test in all cases: DTP human tumour cell line panel, 48 h
[1] = system: HL-60
[2] = system: LOX IMVI
[3] = system: KM12
[4] = system: HCT-15
[5] = system: SF-295
[6] = system: NCI-H23
[7] = system: OVCAR-8
[8] = system: KM-20L2
[9] = system: SW-620
[10] = system: IGROV-1
[11] = system: SK-MEL-2
[12] = system: HT-29
[13] = system: M19-MEL
[14] = system: CCRF-CEM
[15] = system: M14
[16] = system: SK-OV-3
[17] = system: UACC-62
[18] = system: OVCAR-4

Structure (SMILES)	GI50 [1]	GI50 [2]	GI50 [3]	GI50 [4] [µM]	GI50 [5]	GI50 [6]	GI50 [7]	GI50 [8]	GI50 [9]	GI50 [10]	GI50 [11]	GI50 [12]	GI50 [13]	GI50 [14]	GI50 [15]	GI50 [16]	GI50 [17]	GI50 [18]
C/C=C/C#CC#C/C=C/C=C/C(O)CCO (stereo unspecified)	> 18.1 µM (inactive)	> 23.1 µM (inactive)	> 23.1 µM (inactive)	> 23.1	> 18.7 µM (inactive)	> 23.1 µM (inactive)	> 23.1 µM (inactive)	> 23.1 µM (inactive)	> 23.1 µM (inactive)	> 23.1 µM (inactive)	> 23.1 µM (inactive)	> 23.1 µM (inactive)	> 23.1 µM (inactive)	> 23.1 µM (inactive)	> 23.1 µM (inactive)	> 23.1 µM (inactive)	> 23.1 µM (inactive)	> 23.1 µM (inactive)
Cc1c(C(=N)N)oc2ccccc12	> 100 µM (inactive)	> 100 µM (inactive)	> 100 µM (inactive)		> 100 µM (inactive)	> 100 µM (inactive)	> 100 µM (inactive)	> 100 µM (inactive)	> 100 µM (inactive)	> 100 µM (inactive)		> 100 µM (inactive)	> 100 µM (inactive)	> 100 µM (inactive)	> 100 µM (inactive)	> 100 µM (inactive)	> 100 µM (inactive)	> 100 µM (inactive)
O=C(c1ccc(Cl)cc1)N(C(=S)N1CCN(c2ccccn2)CC1)c1ccccc1	32.7 µM (inactive)	> 100 µM (inactive)	> 100 µM (inactive)	> 100	99.3 µM (inactive)	> 100 µM (inactive)	> 100 µM (inactive)	> 100 µM (inactive)	> 100 µM (inactive)	> 100 µM (inactive)	> 100 µM (inactive)	> 100 µM (inactive)	> 100 µM (inactive)	> 100 µM (inactive)	> 100 µM (inactive)	> 100 µM (inactive)	> 100 µM (inactive)	> 100 µM (inactive)
C=CC/N=C1\NC(=O)C(CC(=O)Nc2ccc(C)cc2)S1 (stereo unspecified)	> 100 µM (inactive)	> 100 µM (inactive)	> 100 µM (inactive)	> 100	> 100 µM (inactive)	> 100 µM (inactive)	> 100 µM (inactive)	> 100 µM (inactive)	> 100 µM (inactive)	> 100 µM (inactive)	> 100 µM (inactive)	> 100 µM (inactive)	> 100 µM (inactive)	> 100 µM (inactive)	> 100 µM (inactive)	> 100 µM (inactive)	> 100 µM (inactive)	> 100 µM (inactive)
c1ccc(CN2CCCCC(Sc3ccccc3)CC2)cc1 (stereo unspecified)	23.3 µM (inactive)	16.5 µM (inactive)	> 100 µM (inactive)	17.6	40.5 µM (inactive)	30.1 µM (inactive)	27.8 µM (inactive)	26.4 µM (inactive)	1.53 µM (inactive)	91.6 µM (inactive)	32.9 µM (inactive)	17.7 µM (inactive)	3.1 µM (inactive)	19.2 µM (inactive)	16.1 µM (inactive)	58.2 µM (inactive)	36 µM (inactive)	46.7 µM (inactive)
CC12CCC([C@H](N3CCOCC3)/C1=N\OCCN1CCCC1)C2(C)C (stereo partly specified)	> 100 µM (inactive)	> 100 µM (inactive)	> 100 µM (inactive)	> 100	> 100 µM (inactive)	> 100 µM (inactive)	> 100 µM (inactive)	> 100 µM (inactive)	> 100 µM (inactive)	> 100 µM (inactive)	> 100 µM (inactive)	> 100 µM (inactive)	> 100 µM (inactive)	> 100 µM (inactive)	> 100 µM (inactive)	> 100 µM (inactive)	> 100 µM (inactive)	> 100 µM (inactive)
CN(C)P(=O)(/C(N)=N/Nc1ccc([N+](=O)[O-])cc1)N(C)C	> 100 µM (inactive)	> 100 µM (inactive)	> 100 µM (inactive)	> 100		62.4 µM (inactive)	> 100 µM (inactive)	> 100 µM (inactive)	> 100 µM (inactive)		> 100 µM (inactive)		> 100 µM (inactive)	> 100 µM (inactive)	> 100 µM (inactive)		> 100 µM (inactive)	85.1 µM (inactive)
c1cncc(C2c3[nH]c4ccccc4c3CCN2CCN2CCCCC2)c1 (stereo unspecified)	41.5 µM (inactive)	> 100 µM (inactive)	> 100 µM (inactive)	> 100	> 100 µM (inactive)	> 100 µM (inactive)	> 100 µM (inactive)	> 100 µM (inactive)	> 100 µM (inactive)	> 100 µM (inactive)		> 100 µM (inactive)	> 100 µM (inactive)	56.4 µM (inactive)	16.1 µM (inactive)	> 100 µM (inactive)	> 100 µM (inactive)	> 100 µM (inactive)
CC12CCC(=O)N1c1cccnc1N2 (stereo unspecified)	> 100 µM (inactive)	> 100 µM (inactive)	> 100 µM (inactive)	> 100	> 100 µM (inactive)	> 100 µM (inactive)	> 100 µM (inactive)	> 100 µM (inactive)	> 100 µM (inactive)	> 100 µM (inactive)	> 100 µM (inactive)	> 100 µM (inactive)	> 100 µM (inactive)	> 100 µM (inactive)	> 100 µM (inactive)	> 100 µM (inactive)	> 100 µM (inactive)	> 100 µM (inactive)
COC1C(OC(=O)c2ccc(C)[nH]2)C(O)C(Oc2ccc3c(O)c(NC(=O)c4c[nH]c(C(=O)Nc5c(O)c6ccc(OC7OC(C)(C)C(OC)C(OC(=O)c8ccc(C)[nH]8)C7O)c(C)c6oc5=O)c4C)c(=O)oc3c2C)OC1(C)C (stereo unspecified)	1.83 µM (inactive)	2.77 µM (inactive)	1.32 µM (inactive)	1.88	4.01 µM (inactive)	1.24 µM (inactive)	2.81 µM (inactive)	2.4 µM (inactive)	4.34 µM (inactive)	1.3 µM (inactive)	2.28 µM (inactive)	3.9 µM (inactive)	1.64 µM (inactive)	2.34 µM (inactive)		2.15 µM (inactive)	0.724 µM (active)	2.05 µM (inactive)
NC(=O)N/N=C(/c1nc2ccc([N+](=O)[O-])cc2nc1O)C(O)c1ccco1 (stereo unspecified)	13.1 µM (inactive)	21.6 µM (inactive)		12	80.7 µM (inactive)	> 100 µM (inactive)	> 100 µM (inactive)	10.4 µM (inactive)	44.6 µM (inactive)	73.3 µM (inactive)		46.2 µM (inactive)	79.8 µM (inactive)	34.7 µM (inactive)	93.8 µM (inactive)	> 100 µM (inactive)	29.2 µM (inactive)	> 100 µM (inactive)
CC1=Nc2ccccc2S(=O)(=O)N1	> 100 µM (inactive)	> 100 µM (inactive)	> 100 µM (inactive)	> 100	> 100 µM (inactive)	> 100 µM (inactive)	> 100 µM (inactive)	> 100 µM (inactive)	> 100 µM (inactive)	> 100 µM (inactive)	> 100 µM (inactive)	> 100 µM (inactive)	> 100 µM (inactive)	> 100 µM (inactive)	> 100 µM (inactive)	> 100 µM (inactive)	> 100 µM (inactive)	> 100 µM (inactive)
O=C(CCN1CCN(c2ccccc2)CC1)N1CCc2c([nH]c3ccccc23)C1c1cccnc1 (stereo unspecified)	14.3 µM (inactive)	16.1 µM (inactive)	18 µM (inactive)	15.2	> 10 µM (inactive)	21 µM (inactive)	16.6 µM (inactive)	15.9 µM (inactive)	17.2 µM (inactive)	39.7 µM (inactive)	16.3 µM (inactive)	15 µM (inactive)	19.9 µM (inactive)	20.6 µM (inactive)	15.8 µM (inactive)	18.1 µM (inactive)	> 10 µM (inactive)	13.6 µM (inactive)
CCOC(=O)C(C(=O)OCC)S(C)(=O)=O	> 100 µM (inactive)	> 100 µM (inactive)	> 100 µM (inactive)		> 100 µM (inactive)	> 100 µM (inactive)	> 100 µM (inactive)	> 100 µM (inactive)	> 100 µM (inactive)	> 100 µM (inactive)	> 100 µM (inactive)	> 100 µM (inactive)	> 100 µM (inactive)	> 100 µM (inactive)	> 100 µM (inactive)	> 100 µM (inactive)	> 100 µM (inactive)	> 100 µM (inactive)
COC(=O)c1cc2cc(OC)c(OC)cc2cc(C(=O)OC)c1=O	> 100 µM (inactive)	87.3 µM (inactive)	> 100 µM (inactive)	> 100	> 100 µM (inactive)	> 100 µM (inactive)	> 100 µM (inactive)	> 100 µM (inactive)	35.3 µM (inactive)	> 100 µM (inactive)	> 100 µM (inactive)	> 100 µM (inactive)	> 100 µM (inactive)	> 100 µM (inactive)	> 100 µM (inactive)	> 100 µM (inactive)	> 100 µM (inactive)	> 100 µM (inactive)
O=c1[nH][nH]c(=O)[nH]1	> 100 µM (inactive)	> 100 µM (inactive)	> 100 µM (inactive)	> 100	> 100 µM (inactive)	> 100 µM (inactive)		> 100 µM (inactive)	> 100 µM (inactive)	> 100 µM (inactive)	> 100 µM (inactive)	> 100 µM (inactive)	> 100 µM (inactive)	> 100 µM (inactive)	> 100 µM (inactive)	> 100 µM (inactive)	> 100 µM (inactive)	> 100 µM (inactive)
